Our source for the TGI values is PubChem BioAssay (NCI).

Common to all, as to assay: growth of human tumour cells (NCI), 48 h
The subject of assay [1] is OVCAR-4 ovarian.
Assay [2] relates to SF-268 CNS.
The subject of assay [3] is OVCAR-5 ovarian.
Assay [4] has as its system TK-10 renal.
Assay [5] concerns HT29 colon.
For assay [6], the system named is COLO 205 colon.
Assay [7] relates to BT-549 breast.
Assay [8] has as its system MDA-N.
Assay [9] relates to SF-539 CNS.
The subject of assay [10] is UO-31 renal.
Assay [11] deals with UACC-257 melanoma.
For assay [12], the system named is SF-295 CNS.
The subject of assay [13] is HCT-116 colon.
Assay [14] concerns HOP-92 NSCLC.
Assay [15] deals with MCF7 breast.
Assay [16] has as its system NCI-H226 lung.
Assay [17] relates to SR leukemia.
Assay [18] has as its system CCRF-CEM leukemia.
The test system of assay [19] is LOX IMVI melanoma.
The test system of assay [20] is 786-0 renal.

Molecules are shown by their SMILES.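 Test compounds were applied to cells in 96-well plates for 48 hours at 5 doses. Definition used: TGI = concentration required for complete inhibition of growth.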 Bounds are passed on as bounds.

With `COC(=O)c1cc(C#N)[nH]c1-c1ccc(Br)s1`, the TGI in assay [1] stood at 36.7 µM; in assay [2] it was 24.2 µM; in assay [3] it was 24.1 µM; in assay [4], 25.7 µM; in assay [5], 24.8 µM; in [6], 29.1 µM. For the same compound, the TGI was determined as 22.8 µM in [7]; 27.9 µM in [8]; 27.2 µM in [9]; 15.6 µM in [10]; 24.9 µM in assay [11]; 21.1 µM in assay [12]. For the same compound, the TGI in [13] was 26.3 µM; in [14], 15.3 µM; in [15] it was 18.6 µM; in assay [16] it was 26.3 µM; in assay [17], above 51.9 µM; in assay [18] it was 49.9 µM. For the same compound, the TGI in [19] turned out to be 23.1 µM; in [20], 27.7 µM.
Consider `C=CC(=O)C#Cc1cnc(OC)nc1OC`, for which the TGI in [1] is 42.3 µM; in [2] it was above 71.9 µM; in [3] it was 33.9 µM; in [4], 35.2 µM; in [5], above 54.4 µM; in assay [6], 13.3 µM. Further, the TGI in assay [7] is 17.5 µM; in [8], 40.5 µM; in assay [9], 30.5 µM; in assay [10], 33.5 µM; in [11], 20.3 µM; in [12], above 100 µM. The TGI in assay [13] was 26.1 µM; in [14], above 54.3 µM; in [15], 30.6 µM; in assay [16], above 92.7 µM; in assay [17], 6.15 µM; in assay [18], 2.97 µM. Further, the TGI in assay [19] was 20.5 µM; in assay [20] it was 12.6 µM.
With `CN1C(=O)C(O)CC1c1ccccc1F` (stereo not given), the TGI in assay [1], in assay [3], in assay [5], in assay [6], in assay [7] and in assay [8] was above 100 µM in each case. Besides, the TGI in assay [9], in assay [10], in [11], in [12], in assay [13] and in [14] was above 100 µM in each case. For the same compound, the TGI in assay [15], in assay [16], in assay [17], in assay [18], in [19] and in assay [20] was above 100 µM each time.
For `CC(=O)Nn1c(Cc2ccc(Cl)cc2)nn(C)c1=O`, the TGI in assay [1], in [2], in assay [3], in assay [4], in assay [5] and in [6] was above 100 µM in each case. In addition, the TGI in [7], in assay [8], in [9], in assay [10], in assay [11] and in assay [12] was above 100 µM in each case. The TGI in assay [13], in [14], in [15], in [16], in assay [17] and in assay [18] was above 100 µM each time. The TGI in assay [19] and in [20] was above 100 µM each time.
Turning to `CC(=O)OC1CCn2c1nc1c2C(=O)C=C(N2CC2)C1=O` (stereo not given), the TGI in assay [1] amounted to 0.231 µM; in assay [2] it was 0.784 µM; in [3], 2.61 µM; in assay [4], 0.86 µM; in assay [5] it was 2.08 µM; in assay [6], 0.219 µM. Moreover, the TGI in [7] turned out to be 2.54 µM; in assay [8], 1.06 µM; in assay [9], 0.696 µM; in [10], 0.35 µM; in assay [11], 1.02 µM; in assay [12] it was 5.61 µM. The TGI stood at 0.781 µM in [13]; 1.83 µM in assay [14]; 0.957 µM in [15]; 6 µM in [16]; 0.346 µM in [17]; 1.17 µM in [18]. The TGI came to 0.275 µM in assay [19] and 0.557 µM in assay [20].
As for `c1ccc(CN2C3C4N(Cc5ccccc5)C2C2N(Cc5ccccc5)C(C(N2Cc2ccccc2)N4Cc2ccccc2)N3Cc2ccccc2)cc1`, the TGI in assay [2], in assay [3], in assay [4], in assay [5], in assay [6] and in assay [7] was above 100 µM each time. In addition, the TGI in assay [8], in assay [9], in assay [11], in assay [12], in [13] and in [14] was above 100 µM throughout. For the same compound, the TGI in assay [15], in [16], in assay [17], in [18], in assay [19] and in assay [20] was above 100 µM throughout.
As to `O=c1c2ccccc2nc(-c2ccccc2)n1/N=C/c1ccccc1[N+](=O)[O-]`, the TGI is above 100 µM in assay [1]; above 68.7 µM in assay [2]; above 100 µM in assay [3]; above 59.6 µM in assay [4]; above 100 µM in assay [5]; above 100 µM in [6]. The TGI in assay [7] was above 100 µM; in [8], above 100 µM; in [9] it was above 100 µM; in assay [11], above 100 µM; in assay [12] it was above 83.3 µM; in assay [13] it was above 100 µM. Besides, the TGI in assay [14] is 98.4 µM; in assay [15] it was above 100 µM; in assay [16], above 100 µM; in [17], above 100 µM; in assay [18] it was above 100 µM; in [19], above 100 µM. The compound further registered a TGI in [20] above 100 µM.
